Measurements taken from ChEMBL document CHEMBL1201862, “PubChem BioAssay data set” (2004).
Calls of active or inactive are those of the source.

Columns and labels:
[1] = target: T1, Endoribonuclease toxin MazF (Escherichia coli K-12, UniProt P0AE70); assay: MazF toxin RNase activators, dose response, biochemical, fluorescence, single-stranded RNA substrate, uHTS hits (AID 588481); type: functional
T1 sequence (P0AE70 whole entry): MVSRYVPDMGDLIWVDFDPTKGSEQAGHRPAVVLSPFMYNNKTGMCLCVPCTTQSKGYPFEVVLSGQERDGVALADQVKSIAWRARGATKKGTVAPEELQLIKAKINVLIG

[2] = target: T2, RNA-binding protein pos-1 (Caenorhabditis elegans, UniProt G5EF15); assay: inhibitors of POS-1/mex-3 RNA binding, dose response, biochemical, fluorescence polarization (AID 1964);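 note: purified POS-1 fused to maltose binding protein made in E. coli; potency of compounds blocking POS-1 binding to fluorescent RNA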
T2 sequence (G5EF15 whole entry): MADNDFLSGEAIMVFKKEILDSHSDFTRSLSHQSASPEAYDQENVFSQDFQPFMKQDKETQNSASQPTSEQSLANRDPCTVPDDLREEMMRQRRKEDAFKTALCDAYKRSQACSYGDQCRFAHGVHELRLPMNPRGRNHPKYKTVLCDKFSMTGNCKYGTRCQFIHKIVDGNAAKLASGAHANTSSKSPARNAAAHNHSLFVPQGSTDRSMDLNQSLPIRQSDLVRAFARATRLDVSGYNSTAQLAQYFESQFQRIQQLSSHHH

[3] = target: T1, Endoribonuclease toxin MazF; assay: fluorescent RNA oligo signal without MazF, dose response, counter-screen for MazEF activator project, biochemical, fluorescence, single-stranded RNase substrate (AID 588502); type: functional
[4] = target: T3, Zinc finger protein mex-5 (Caenorhabditis elegans, UniProt Q9XUB2); assay: MEX-5/TCR-2 RNA interaction inhibitors, dose response, biochemical, C. elegans, fluorescence polarization (AID 1960)
T3 sequence (Q9XUB2 whole entry): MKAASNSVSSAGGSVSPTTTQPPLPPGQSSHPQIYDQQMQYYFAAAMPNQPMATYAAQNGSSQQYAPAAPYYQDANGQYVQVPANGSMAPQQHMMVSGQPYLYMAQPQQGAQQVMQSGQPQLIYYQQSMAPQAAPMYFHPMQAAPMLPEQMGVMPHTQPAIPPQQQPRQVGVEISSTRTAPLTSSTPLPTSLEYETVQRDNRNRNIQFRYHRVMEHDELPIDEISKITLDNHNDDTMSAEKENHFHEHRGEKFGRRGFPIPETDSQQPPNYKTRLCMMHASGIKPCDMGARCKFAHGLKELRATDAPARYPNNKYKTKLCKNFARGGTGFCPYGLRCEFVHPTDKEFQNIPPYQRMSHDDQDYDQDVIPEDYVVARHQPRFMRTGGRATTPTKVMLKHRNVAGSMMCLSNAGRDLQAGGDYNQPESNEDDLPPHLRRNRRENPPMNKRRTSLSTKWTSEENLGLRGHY

[5] = cytotoxicity in HEK-293T cells, dose response, cytotoxicity control for BCR NF-kB inhibitor project, luminescence, B-cell screen hits (AID 489021); type: functional, cell-based;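 note: HEK-293T cells carrying an NF-kB luciferase reporter; cells exposed to compound for about 14 hours before viability readout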

Row | Structure (SMILES) | EC50 [1] | EC50 [2] | EC50 [3] | EC50 [4] | IC50 [5]
1 | Cc1cccc(CN2C(=O)N/C(=C/c3ccc(C)s3)C2=O)c1 | > 99 µM (inactive) | 27.5 µM (active) | 87.8 µM (inactive) | > 300 µM (inconclusive) | 
2 | COc1ccccc1/C=C1/SC(=S)N(CCC(=O)Nc2cccnc2)C1=O | 52 µM (inactive) | 69.2 µM (active) | > 99 µM (inactive) | 37.6 µM (inconclusive) | > 80 µM (inactive)
